Results reported in publication PMC4635352, “Preventive effect of oral goshajinkigan on chronic oxaliplatin-induced hypoesthesia in rats” (Scientific Reports, 2015).
Like-named read-outs stand apart in the source and are kept apart here.

How the values were obtained:
[1] = pharmacokinetic study of GJG-derived compounds in rat plasma (LC-MS/MS); assay type: in vivo; details: for Cmax / Tmax: rat plasma after oral GJG 1.0 g/kg, mean ± S.D.; for time for which the high plasma concentration was maintained: after oral administration of GJG; for time at which maximum plasma concentration (Cmax) was reached: after oral administration of GJG 1.0 g/kg
Procedure: Rats cannulated in the jugular vein were fasted for more than 16 hours with access to water. At the time of 0.083, 0.25, 0.5, 1, 2, 4 and 8 hours after oral administration of GJG (1.0 g/10 mL/kg), blood samples were collected with a heparin-coated syringe and centrifuged at 3000 rpm for 15 minutes at 4 °C. The plasma samples were pretreated by precipitating plasma protein with an organic solvent or by solid-phase extraction and injected into the LC-MS/MS system for analysis. Components of GJG in plasma were measured by a QTRAP®5500 system (AB SCIEX, Tokyo, Japan) equipped with an Agilent 1260 HPLC system (binary pump, online degasser, auto plate-sampler and column oven; Agilent Technologies, Tokyo, Japan). The lower limits for quantification were 0.001 ng/mL for benzoylaconine, benzoylmesaconine, benzoylhypaconine; 0.002 ng/mL for 14-anisoylaconine; 0.2 ng/mL for loganin and morroniside; 0.5 ng/mL for paeoniflorin; and 5 ng/mL for catalpol. Cmax and time to reach maximum plasma concentration (Tmax) as pharmacokinetic parameters were calculated based on the plasma concentration of each compound by Phoenix WinNonlin (version 6.3; Certara L.P., St. Louis, MO, USA).

neuro2A cells = details: for oxaliplatin-induced ROS generation: co-administration with oxaliplatin, 100 μM (first screening), 1–100 μM (second screening), 1 h; for oxaliplatin-induced ROS generation, effect of antioxidants: Supplementary Figure S1; for ROS generation in neuro2A cells by metabolites of oxaliplatin: data not shown
SHSY-5Y cells = test system: SHSY-5Y cells; parameters: method as in PMID 21241762, PMID 19379729, PMID 24263411; details: cited from earlier work

Structure (SMILES)	Cmax [1]	Tmax [1]	oxaliplatin-induced ROS generation (neuro2A cells)	time at which maximum plasma concentration (Cmax) was reached [1]	Cmax ([1]; read-out: Cmax)	Tmax ([1]; read-out: Tmax)	also measured
CCN1C[C@]2(COC)[C@H](O)C[C@H](OC)C34C1C([C@H](OC)[C@@H]32)[C@]1(O)[C@@H]2[C@H]4C[C@@](O)([C@@H]2OC(=O)c2ccc(OC)cc2)[C@@H](OC)[C@@H]1O [14-Anisoylaconine, 14-anisoylaconine]	0.009 ± 0.000 ng/mL	18.6 ± 7.8 min	significantly decreased				
CCN1C[C@]2(COC)[C@H](O)C[C@H](OC)[C@@]34[C@@H]5C[C@@]6(O)[C@H](OC(=O)c7ccccc7)[C@@H]5[C@@](O)([C@@H]([C@H](OC)[C@H]23)[C@@H]14)[C@@H](O)[C@@H]6OC [Benzoylaconine, benzoylaconine]	0.012 ± 0.002 ng/mL	30 ± 0 min					
COC[C@@]12CC[C@H](OC)[C@]34C([C@H]([C@H](OC)[C@H]13)[C@]1(O)[C@H]3[C@@H](OC(=O)c5ccccc5)[C@](O)(C[C@H]34)[C@@H](OC)[C@@H]1O)N(C)C2 [Benzoylhypaconine, benzoylhypaconine]	0.013 ± 0.001 ng/mL	30 ± 0 min					
COC[C@]12CN(C)C3[C@@H]4[C@H](OC)[C@H]1[C@@]3([C@@H](OC)C[C@H]2O)[C@@H]1C[C@@]2(O)[C@H](OC(=O)c3ccccc3)[C@@H]1[C@]4(O)[C@@H](O)[C@@H]2OC [Benzoylmesaconine, benzoylmesaconine]	0.041 ± 0.006 ng/mL	26.4 ± 7.8 min					
OC[C@H]1O[C@@H](O[C@@H]2OC=C[C@H]3[C@H](O)[C@@H]4O[C@]4(CO)[C@@H]23)[C@H](O)[C@@H](O)[C@@H]1O [Catalpol, catalpol]				60 min	282 ± 119 ng/mL	60 ± 33 min	time for which the high plasma concentration was maintained [1]: 4 h
COC(=O)C1=CO[C@@H](O[C@@H]2O[C@H](CO)[C@@H](O)[C@H](O)[C@H]2O)[C@@H]2[C@@H](C)[C@@H](O)C[C@H]12 [Loganin, loganin]			significantly decreased	30 min	43.7 ± 25.7 ng/mL	34.8 ± 12 min	time for which the high plasma concentration was maintained [1]: 4 h; ROS production induced by H2O2 or amyloid β 25–35 peptide (SHSY-5Y cells): attenuate ROS production
COC(=O)C1=CO[C@@H](O[C@@H]2O[C@H](CO)[C@@H](O)[C@H](O)[C@H]2O)[C@@H]2[C@H](C)O[C@@H](O)C[C@H]12 [Morroniside, morroniside]			significantly decreased	30 min	53.7 ± 26.9 ng/mL	40.2 ± 15.6 min	time for which the high plasma concentration was maintained [1]: 4 h; rank of anti-ROS action among active components (neuro2A cells; among LO, MO, PF and 14-AA): strongest action; ROS production induced by H2O2 or amyloid β 25–35 peptide (SHSY-5Y cells): attenuate ROS production
CC(=O)N[C@@H](CS)C(=O)O [N-acetyl cysteine]							oxaliplatin-induced ROS generation, effect of antioxidants (neuro2A cells): inhibited
C[C@@]12C[C@@]3(O)O[C@@H](O1)[C@]1(COC(=O)c4ccccc4)[C@H]3C[C@@]12O[C@@H]1O[C@H](CO)[C@@H](O)[C@H](O)[C@H]1O [Paeoniflorin, paeoniflorin]			significantly decreased	30 min	9.1 ± 1.2 ng/mL	34.8 ± 12 min	ROS production induced by H2O2 or amyloid β 25–35 peptide (SHSY-5Y cells): attenuate ROS production
[Cl][Pt+2][Cl].[NH-]C1CCCCC1[NH-] (centres unmarked) [Pt(dach)Cl2, dichloro (1,2-diaminocyclohexane) platinum]							ROS generation in neuro2A cells by metabolites of oxaliplatin (neuro2A cells): increased ROS generation
N[C@@H](CCC(=O)N[C@@H](CS)C(=O)NCC(=O)O)C(=O)O [glutathione]							oxaliplatin-induced ROS generation, effect of antioxidants (neuro2A cells): inhibited
O=C(O)C(=O)O [oxalate]							ROS generation in neuro2A cells by metabolites of oxaliplatin (neuro2A cells): did not
